Measurements: article PMC9569184, “Antigenic molecular mimicry in viral-mediated protection from cancer: the HIV case” (Journal of Translational Medicine, 2022)

Key:
[1] = target: T1, HLA-A*02:01 molecule (Homo sapiens, UniProt P04439, D140Y/D185E/D98H/E176V/E277Q/G131W/G231S/I119V/I121R/I166T/I218V/L300P/L318F/N151K/N90K/P208A/P217A/Q86G/Q94H/R138H/R169H/T345S); experiment: Peptide binding affinity assay in TAP-deficient T2 cells; type: cell-based; conditions: peptide 5, 10, 20, 50 and 100 μM, 16 h at 27°C + 2 h at 37 °C, anti HLA-A2 R-PE, flow cytometry, triplicate
T1 construct: host or cells: T2 (174xCEM.T2) human TAP-deficient cells
Procedure: Peptide binding affinity to HLA-A*02:01 molecule and BFA decay assays were performed for each candidate peptide. Human TAP-deficient T2 cell line (174xCEM.T2; ATCC CRL 1992™) was purchased from American Type Culture Collection (ATCC; https://www.atcc.org/) and cultured in Iscove's modified Dulbecco's medium (IMDM; Gibco Life Technologies) containing 25 mM HEPES and 2 mM L-Glut, supplemented with 20% fetal bovine serum (FBS; Capricorn Scientific GmbH), 100 IU/ml penicillin and 100 μg/ml streptomycin (Gibco Life Technologies). Cells were maintained at 37 °C in a humidified incubator with 5% CO2. Briefly, T2 were seeded at 3.5 × 10^5 cells per well in 24 well plates and incubated 16 h at 27°C with peptides (final concentrations: 5, 10, 20, 50 and 100 μM) in IMDM serum free medium. The next day, cells have been incubated for additional 2 h at 37 °C. Following incubation, cells were harvested and centrifuged at 200 × g for 5 min. Subsequently, cells were washed twice with phosphate buffered saline (1X PBS; Gibco Life Technologies) and stained with R-PE conjugated anti human HLA-A2 mono-clonal antibody (cat. 343,306; BioLegend), for 30 min at 4 °C, and analyzed with the Attune™ NxT flow cytometer (Thermo Fisher Scientific). […] A fluorescence index (FI) was calculated using the following formula: FI = [mean fluorescence intensity (MFI) sample – MFI background]/MFI background, where MFI background represents the value without peptide. […] Cells were harvested every two hours (T0, T2, T4, T6, T8), washed with phosphate buffered saline (1X PBS; Gibco Life Technologies), stained with anti HLA-A*0201 fluorescent monoclonal antibody (cat. 343,306; BioLegend) and analyzed by flow cytometry. The stability of each peptide bound to HLA-A*02:01 was measured as the DC50 value, which was defined as an estimate of the time required for a 50% reduction of the MFI value at time 0. The DC50 value was calculated according to the formula: MFI at indicated time points/MFI at time 0 × 100. […]

[2] = target: T1, HLA-A*02:01 molecule; experiment: BFA decay assay (peptide-MHC dissociation) in T2 cells; type: cell-based; conditions: peptide 50 μM, 1X BFA 1 h at 37°C, harvested every two hours T0-T8, flow cytometry, triplicate
Procedure: Cells were maintained at 37 °C in a humidified incubator with 5% CO2.

Row | Sequence | binding to HLA-A*02:01 (HLA surface expression on T2 cells) [1] | 50% dissociation value (Thalf), peptide-MHC dissociation kinetics [2]
1 | VIAGIVALV | dose-dependent increase in the HLA surface expression on T2 cells over the background | –
2 | VVAGIIALV | dose-dependent increase in the HLA surface expression on T2 cells over the background | –
3 | VVAGIVVLV [TAA derived from the colon ca-associated EPCAM protein] | dose-dependent increase in the HLA surface expression on T2 cells over the background | 4 h
